The assay has as its system 439559-082-T-J2-PDC spheroids viability. Description: Anticancer human tumor 439559-082-T-J2-PDC patient-derived colon adenocarcinoma cell line growth inhibition [GQUAD]. The note with it: for viability, T/C: stronger effect = lower value. The text has this:
DNA G-quadruplex Stabilizer Agents in Combinations in Complex Spheroids
A high-throughput screen of multi-cell type tumor spheroids was designed to identify active combinations of DNA G-quadruplex stabilizer agents and targeted small molecules. Complex spheroids include a stromal component modeled by human endothelial cells (HUVEC) and fibroblasts modeled by human mesenchymal stem cells (MSCs). The concentration ranges selected for each drug and investigational agent were based upon clinically achievable concentrations if the clinical Cmax of the agent was known.
Compounds. The drugs and investigational agents: pidnarulex (CX-5461; NSC782164), APTO-253 (NSC789042), BRACO-19 (NSC847499), peposertib (NSC802822), ceralasertib (NSC780249), elimusertib (NSC800525), camonsertib (NSC841442), AZD-1390 (NSC803789), olaparib (NSC753686), talazoparib (NSC767125), ART-558 (NSC835418), sotorasib (NSC818433), MRTX-1133 (NSC836407), SN-38 (NSC673596), topotecan (NSC609699), etoposide (NSC141540), doxorubicin (NSC123127), gemcitabine (NSC613327), 5-fluorouracil (NSC19893), paclitaxel (NSC125973), vemurafenib (NSC761431), panobinostat (NSC761190), R-306465 (JNJ-16241199; NSC773264), adavosertib (NSC754352), TP-3654 (NSC805149), carboplatin (NSC241240), KSQ-4279 (NSC840948), and staurosporine (NSC755774) were obtained from the National Cancer Institute (NCI) Developmental Therapeutics Program Chemical Repository (34). The FDA-approved anticancer drug set is available from the NCI Developmental Therapeutics Program. […] The stock solutions were prepared in dimethyl sulfoxide (DMSO, Sigma-Aldrich, St. Louis, MO, cat. D2650) at 800-fold the tested concentration and stored at -70 degrees C prior to their use. All drugs and investigational agents were tested over a range starting from a high concentration at or near the clinical Cmax and decreasing in half-log increments. If the clinical Cmax for an agent had not been determined, the highest concentration tested was 10 microM.
2.3 Cell Culture. All cells were maintained in an incubator at 37 degrees C and 5% CO2 with 95% humidity. The PDC lines were cultured according to standard operating procedures established by the NCI PDMR. All PDCs were thawed and cultured in Matrigel-coated flasks prepared with a working solution of 1X Ham's F-12 nutrient mix, without supplementation (Invitrogen, cat. 11765054), 100 U/mL penicillin-streptomycin (Invitrogen, cat. 15140122), and 2.5% Matrigel (Corning Inc., cat. 354248) for the first three passages. The 857933-349-R-J2-PDC line was cultured in 6C/Colon 1B media, which includes advanced DMEM/F-12 (Thermo Fisher Scientific, cat. 12634028), 10 mM HEPES (Thermo Fisher Scientific, cat. 15630080), 1X GlutaMAX supplement (Thermo Fisher Scientific, cat. 35050061), 0.1 mg/mL primocin (InvivoGen, cat. ant-pm-2), 10% defined fetal bovine serum, heat inactivated (HyClone Laboratories Inc., cat. SH30070.03HI), 50% L-WRN conditioned media (ATCC, cat. CRL-3276), 1.25 mM N-Acetyl-L-cysteine (Sigma-Aldrich, cat. A9165), 10 mM nicotinamide (Sigma-Aldrich, cat. N0636), 1X B-27 supplement (Thermo Fisher Scientific, cat. 17504044), 1X N-2 supplement (Thermo Fisher Scientific, cat. 17502048), 10 microM Y-27632 dihydrochloride (Tocris Bioscience, cat. 1254), and 50 ng/mL human EGF recombinant protein (Thermo Fisher Scientific, cat. PHG0311). The 485176-168-R4-J1-PDC line was cultured in Panc media, which includes all 6C/Colon 1B media components plus 100 ng/mL human FGF-10 (Thermo Fisher Scientific, cat. 100-26), 500 nM SB-431542 (Selleckchem, cat. S1067), and gastrin (Tocris, cat. 3006).
[…]

This is an account of results in PubChem BioAssay AID2060510 (Molecular Pharmacology Branch, DTP, NCI, 2025).

In general, viability, T/C refers to the ratio of treated to control. In general, IC50 refers to the point on the concentration scale where inhibition reaches its midpoint.

Several values for one entry are separate records, joined by “and”; a condition that tells them apart may be missing. Identical values can stand only once. A value given as a limit tells only on which side of the number the result lay.
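Also: spheroids exposed to the agents for 7 days before readout.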
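For viability, T/C in this document: percent of luminescence signal in DMSO vehicle wells taken as 100% viability.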

Turning to `C#Cc1c(F)ccc2cc(O)cc(-c3ncc4c(N5CC6CCC(C5)N6)nc(OCC56CCCN5CC(F)C6)nc4c3F)c12` (stereo not drawn), the viability, T/C by setting is: (compound 0.0316 µM) 96.1% and 98.3% and 86.1%; (compound 0.1 µM) 86.3% and 94.2% and 72.7%; (compound 0.316 µM) 76.8% and 90.2% and 62.7%; (compound 1 µM) 75.4% and 78.3% and 59.6%; (compound 3.16 µM) 60.6% and 9.56% and 49.7%; (compound 10 µM) 49% and 15.8% and 45.7%. Further, the IC50 (curve of compound) was 9.82 µM and 1.64 µM and 3.59 µM.
For `C=CC(=O)N1CCN(c2nc(=O)n(-c3c(C)ccnc3C(C)C)c3nc(-c4c(O)cccc4F)c(F)cc23)C(C)C1` (stereo not drawn), the viability, T/C by setting is: (compound 0.0316 µM) 101% (2×) and 96.5%; (compound 0.1 µM) 101% and 91.7% and 89.6%; (compound 0.316 µM) 94.3% and 91.1% and 108%; (compound 1 µM) 110% and 96.3% and 112%; (compound 3.16 µM) 99% and 108% and 107%; (compound 10 µM) 98.8% and 96.6% and 105%. Besides, the IC50 (curve of compound) is above 10 µM.
As to `CC(=O)O[C@H]1C(=O)[C@@]2(C)[C@H]([C@H](OC(=O)c3ccccc3)[C@]3(O)C[C@H](OC(=O)[C@H](O)[C@@H](NC(=O)c4ccccc4)c4ccccc4)C(C)=C1C3(C)C)[C@]1(OC(C)=O)CO[C@@H]1C[C@@H]2O`, the viability, T/C (compound 0.0316 µM) was 97.3% and 78.7% and 84.1%; the viability, T/C (compound 0.1 µM) is 75.3% (2×) and 83.1%; the viability, T/C (compound 0.316 µM) was 55.6% and 69.5% and 90.7%. In addition, the 50% inhibitory concentration (IC50) (curve of compound) was 0.332 µM and 2.18 µM and 2.49 µM.
As to `CC(C)n1c(=O)n(C)c2cnc3cc(F)c(-c4ccc(OCCCN5CCCCC5)nc4)cc3c21`, the viability, T/C is, setting by setting: (compound 0.0316 µM) 110% and 92.9% and 102%; (compound 0.1 µM) 103% and 115% and 91.5%; (compound 0.316 µM) 117% and 111% and 110%; (compound 1 µM) 107% and 114% and 98.3%; (compound 3.16 µM) 116% and 117% and 110%; (compound 10 µM) 95.4% and 101% and 102%. For the same compound, the IC50 (curve of compound) is above 10 µM.
In the case of `CC1COCCN1c1cc(-c2ccnn2C)c2ccnc(-c3ccn[nH]3)c2n1` (stereo not drawn), the viability, T/C is, setting by setting: (compound 0.0316 µM) 97.7% and 97.6% and 93.5%; (compound 0.1 µM) 80.6% and 68.1% and 73.8%; (compound 0.316 µM) 46.8% and 35.7% and 39.2%; (compound 1 µM) 34.3% and 35.7% and 31.6%; (compound 3.16 µM) 37.7% and 30.7% and 31.6%; (compound 10 µM) 33.5% and 28.8% and 34%. Besides, the half-inhibitory concentration (IC50) (curve of compound) was 0.28 µM and 0.192 µM and 0.22 µM.
In the case of `CC1COCCN1c1cc(C2(O)CC3CCC(C2)O3)c2cnn(-c3ccn[nH]3)c2n1` (stereo not drawn), the viability, T/C by setting is: (compound 0.0316 µM) 88.9% and 93.8% and 110%; (compound 0.1 µM) 94.8% and 93.7% and 78.8%; (compound 0.316 µM) 68.1% and 75.7% and 73.3%; (compound 1 µM) 52.4% and 55.8% and 50.7%; (compound 3.16 µM) 39% and 40.9% and 32.5%; (compound 10 µM) 33.2% and 39.8% and 28.5%. Also, where the note is “curve of compound”, the IC50 was 1.03 µM and 1.52 µM.
Take `CC1COCCN1c1cc(C2(S(C)(=N)=O)CC2)nc(-c2ccnc3[nH]ccc23)n1` (stereo not drawn): the viability, T/C (compound 0.0316 µM) was 97.7% and 98.8% and 96.5%; the viability, T/C (compound 0.1 µM) was 111% and 89.2% and 102%; the viability, T/C (compound 0.316 µM) was 93.4% and 106% and 88.7%; the viability, T/C (compound 1 µM) is 101% and 86.2% and 94%; the viability, T/C (compound 3.16 µM) is 92.3% and 87.4% and 80.1%; the viability, T/C (compound 10 µM) was 68.4% and 57.7% and 60.7%. Also, the IC50 (curve of compound) is above 10 µM.
In the case of `CC[C@@]1(O)C(=O)OCc2c1cc1n(c2=O)Cc2cc3c(CN(C)C)c(O)ccc3nc2-1`, the viability, T/C by setting is: (compound 0.000999 µM) 95.3% and 92.3% and 106%; (compound 0.00316 µM) 105% and 96.2% and 94.6%; (compound 0.00999 µM) 96% and 97.9% and 95.6%; (compound 0.0316 µM) 84.6% and 98% and 89.7%; (compound 0.0999 µM) 88.7% and 87.6% and 101%; (compound 0.316 µM) 79% and 81.7% and 75.3%. The IC50 (curve of compound) was above 0.316 µM.
Regarding `CCc1c2c(nc3ccc(O)cc13)-c1cc3c(c(=O)n1C2)COC(=O)[C@]3(O)CC`, the viability, T/C was 92.9% and 101% and 105% (compound 0.000999 µM); 88.5% and 90.5% and 87.7% (compound 0.00316 µM); 78.4% and 78.2% and 84.3% (compound 0.00999 µM); 71.1% and 81.8% and 69.5% (compound 0.0316 µM); 61.7% and 59.3% and 49.4% (compound 0.0999 µM); 47.6% and 44.7% and 36.1% (compound 0.316 µM). Besides, the IC50 (curve of compound) is 0.272 µM and 0.229 µM and 0.115 µM.
For the compound `CN(C)c1ccc(Nc2c3ccc(NC(=O)CCN4CCCC4)cc3nc3cc(NC(=O)CCN4CCCC4)ccc23)cc1`, the viability, T/C was 103% [middle of 12 runs] (compound 0.0316 µM); 99.9% [middle of 12 runs] (compound 0.1 µM); 101% [middle of 12 runs] (compound 0.316 µM); 104% [middle of 12 runs] (compound 3.16 µM); 101% [middle of 12 runs] (compound 10 µM). In addition, under “compound alone, run of 04/22/2024”, the IC50 was above 10 µM.
As to `COc1cc(C2c3cc4c(cc3C(OC3OC5COC(C)OC5C(O)C3O)C3COC(=O)C23)OCO4)cc(OC)c1O` (stereo not drawn), the viability, T/C (compound 0.0316 µM) was 96.1% and 96% and 96.2%; the viability, T/C (compound 0.1 µM) is 93% and 81.9% and 90.7%; the viability, T/C (compound 0.316 µM) was 92.8% and 94.6% and 101%; the viability, T/C (compound 1 µM) was 98.3% and 89.7% and 95%; the viability, T/C (compound 3.16 µM) was 90.2% and 80.1% and 81.5%; the viability, T/C (compound 10 µM) was 62.3% and 61% and 68.8%. In addition, the IC50 (curve of compound) was above 10 µM.
